From ChEMBL document CHEMBL1201862, “PubChem BioAssay data set” (2004)
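1) Cells in 96-well plates. 2) Compound, 48 h, 5 concentrations. 3) Linear interpolation between surrounding doses. 4) Unreached endpoint = highest concentration. Abbreviation: GI50, concentration required for 50% inhibition of growth.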 Calls of active or inactive are those of the source. Cut-off read from the data, not from the text of the source: active = GI50 up to about 1.1 µM and inactive = higher.

Legend:
Assay in all cases: NCI-60 cell line screen, 48 h
[1] = tested on: 786-0
[2] = tested on: A549
[3] = tested on: HCT-116
[4] = tested on: Hs-578T
[5] = tested on: K562
[6] = tested on: LOX IMVI
[7] = tested on: MCF7
[8] = tested on: MDA-MB-231
[9] = tested on: OVCAR-4
[10] = tested on: OVCAR-8
[11] = tested on: PC-3
[12] = tested on: RXF 393
[13] = tested on: SN12C
[14] = tested on: SNB-19
[15] = tested on: SNB-75
[16] = tested on: SR
[17] = tested on: U-251
[18] = tested on: UACC-257
[19] = tested on: UACC-62
[20] = tested on: UO-31

Measured: GI50

O=C(O)CN1CCNCCN(CC(=O)O)CC1
inactive: [1] 5.48 µM | [2] 14.8 µM | [3] 3.36 µM | [4] > 66.1 µM | [5] 3.76 µM | [6] 17.3 µM | [7] 3.73 µM | [8] > 34 µM | [9] 38.8 µM | [10] 2.63 µM | [11] 18.1 µM | [12] 13.6 µM | [13] > 100 µM | [14] > 100 µM | [15] 12.3 µM | [16] 3.84 µM | [17] 28.2 µM | [18] 15.2 µM | [19] 12.6 µM | [20] 10.2 µM

CNN1C(=O)c2c(N)c(C#N)c(-c3ccccc3)c(-c3ccccc3)c2C1=O
inactive: [1] 91.6 µM | [2] > 100 µM | [3] 44.1 µM | [4] 70.1 µM | [5] 48.9 µM | [6] > 100 µM | [7] 65.8 µM | [8] > 100 µM | [9] > 100 µM | [10] 90.6 µM | [11] 55.6 µM | [12] 82.8 µM | [13] > 100 µM | [14] > 100 µM | [15] 83.4 µM | [16] 76.7 µM | [17] 78.9 µM | [18] > 100 µM | [19] > 100 µM | [20] 48.6 µM

CCCCCCCCCCCCCCCCCCNc1ccn(C2OC(COP(=O)(O)OCC3OC(n4cc(C)c(=O)[nH]c4=O)CC3F)C(O)C2O)c(=O)n1 (stereo not given)
inactive: [1] 4.06 µM | [2] 11.2 µM | [3] 10.2 µM | [4] 11.1 µM | [5] 8.55 µM | [6] 7.59 µM | [7] 9.46 µM | [8] 10.7 µM | [9] 9.02 µM | [10] 8.51 µM | [11] 1.61 µM | [12] 1.67 µM | [13] 7.87 µM | [14] 6.5 µM | [15] 19.8 µM | [16] 1.44 µM | [17] 7.26 µM | [18] 10.4 µM | [19] 6.24 µM | [20] 13.2 µM

C1CCC(CC2CCC(NC3=NCCO3)CC2)CC1 (stereo not given)
inactive: [1] 15.2 µM | [2] 32.8 µM | [3] 15.5 µM | [4] 16.3 µM | [5] 14 µM | [6] 16.1 µM | [7] 17.5 µM | [8] 19.4 µM | [9] 20.2 µM | [10] 17.1 µM | [11] 15.8 µM | [12] 18.3 µM | [13] 19.8 µM | [14] 17.3 µM | [15] 18.2 µM | [16] 24.4 µM | [17] 18 µM | [18] 16.4 µM | [19] 17.3 µM | [20] 19.9 µM

Cc1c(-c2cnccn2)ssc1=S [OLTIPRAZ]
inactive: [1] 40.4 µM | [2] 98.9 µM | [3] 54.3 µM | [4] 34.5 µM | [5] > 100 µM | [6] 63 µM | [7] > 100 µM | [8] 63.2 µM | [9] > 100 µM | [10] 72.4 µM | [11] > 100 µM | [12] 31.9 µM | [13] > 100 µM | [14] 68.1 µM | [15] 18.5 µM | [16] 68.9 µM | [17] 46 µM | [18] 24.5 µM | [19] 76.2 µM | [20] 40 µM
